{"source": "paper PMC7915902", "about": "“Preclinical Evaluation of [^18F]FACH in Healthy Mice and Piglets: An ^18F-Labeled Ligand for Imaging of Monocarboxylate Transporters with PET” (International Journal of Molecular Sciences, 2021)", "key": {"MCTs [1]": {"system": "MCTs", "assay": "Dynamic PET/MRI in mice with pre-treatment", "format": "in vivo, mouse", "settings": "for AUC0–60 min gall bladder / AUC0–60 min kidney cortex / AUC0–60 min liver / AUC0–60 min small intestine / AUC0–60 min whole blood: mouse, in vivo", "protocol": "(§1) The biodistribution of [^18F]FACH in mice was assessed by small animal PET (Nanoscan, Mediso, Budapest, Hungary) with dynamic 60 min emission recordings, followed by T1 weighted GRE MR (TR = 15.0 ms, TE = 2.4 ms, FA = 25°) imaging for anatomical correlations and attenuation correction. The mice (n = 20) weighing 32.2 ± 2.9 g were anaesthetised with 2% isoflurane in 60% oxygen, and placed on a thermostatically heated animal bed. The animals then received i.v. injections of 0.9% saline (control), reference compound (10 mg/kg), or α-CCA-Na (25 mg/kg) ten min prior or 20 min after (displacement studies) [^18F]FACH administration (2.3–8.6 MBq, 0.5–11.2 nmol/kg). List mode PET data were binned as a series of attenuation-corrected sinogram frames (12 × 10 s, 6 × 30 s, 5 × 60 s and 10 × 300 s) and were reconstructed by Ordered Subset Expectation Maximization (OSEM3D) with four iterations, six subsets and a voxel size of 0.4 mm³ (Nucline v2.01, Mediso).\n(§2) The analysis of reconstructed datasets was performed with PMOD software (v4.103, PMOD Technologies LLC, Zurich, Switzerland).\n(§3) Data are shown in mean ± standard deviation (SD). Group differences were tested by Student’s t-test, with p < 0.05 designated as significant. Area Under the Curves (AUCs) and corresponding 95% confidence intervals (CI95%s) were calculated with GraphPad Prism (v.8.2) following the assumptions described by Gagnon et al.."}, "MCTs [2]": {"system": "MCTs", "assay": "Autoradiographic competition study in mouse kidney cryosections", "format": "binding", "settings": "300 nM competitor, 1 nM [18F]FACH", "protocol": "Cryosections from the mouse kidney (10 µm) were cut on a microtome (Microm HM560, Thermo Scientific Microm, Fisher Scientific GmbH, Schwerte, Germany), mounted on glass slides (SuperFrost, Thermo Scientific Menzel, Fisher Scientific GmbH), dried for two hours at room temperature, and stored at −25 °C. Before the binding experiment, the tissue slices were dried under a stream of cold air, pre-incubated with PBS (pH 7.4) for 15 min at room temperature and dried again before incubation with PBS containing [^18F]FACH (1.2 nM) without (total binding) and with different concentrations of FACH-Na (10 µM–0.1 nM; homologous competition) for 60 min. Specific binding to MCTs of [^18F]FACH in cryosections of mouse kidney was determined after co-incubation of 1 nM [^18F]FACH with vehicle or 300 nM α-CCa-Na or 300 nM reference compound (homologous competition).\nThe incubation was terminated by washing with ice-cold buffer (50 mM TRIS-HCl, pH 7.4) twice for two minutes followed by dipping in ice-cold demineralized water for 5 s and drying under a stream of cold air. […] KD and Bmax values were calculated by the simplified Cheng and Prusoff equation (http://www3.uah.es/farmamol/Public/GraphPad/radiolig.htm, accessed on 5 February 2021):(1) KD=Ki=IC50−Radioligand (M) (2) Bmax=Top−Bottom/Radioligand (M)/(KD+Radioligand (M))"}, "[3]": {"assay": "Extended single dose toxicity study in rats", "format": "in vivo, rat", "protocol": "The extended single dose toxicity studies of FACH in male (n = 15) and female (n = 15) outbred Wistar rats were performed in the Biological Testing Laboratory (BTL) in Russia (Study Number 680/19). The test item FACH-Na was administered by single bolus i.v. injection at doses of 6.2, 62 and 620 μg/kg body weight (bw). Mortality, clinical pathology parameters (hematology and serum chemistry), organ weights and microscopic tissue parameters were investigated 24 h and two weeks after treatment."}, "MCT1 [4]": {"system": "MCT1", "parameters": "method as in PMID 8779821", "settings": "cited from earlier work"}, "MCT1 [5]": {"system": "MCT1", "parameters": "method as in PMID 31017677", "settings": "L-[14C]lactate uptake, rat brain endothelial cells; read-out: IC50 towards MCT1; cited from earlier work"}, "MCT4": {"system": "MCT4", "parameters": "method as in PMID 31017677", "settings": "L-[14C]lactate uptake, MDA-MB231 cells; read-out: IC50 towards MCT4; cited from earlier work"}, "[6]": {"settings": "in vivo", "quoted_text": "(§6) Radio-metabolites were analyzed by analytical and semi-preparative HPLC on a JASCO LC-2000 system (JASCO Labor- und Datentechnik, Gross-Umstadt, Germany), consisting of a PU-2080 Plus pump, AS-2055 Plus auto injector (100 μL sample loop) or a manual injection valve with a 5 mL sample loop, and a UV-2070 Plus detector coupled with a gamma radioactivity HPLC detector (Gabi Star, Raytest Isotopenmessgeräte GmbH, Straubenhardt, Germany). Data analysis was performed with the Galaxie chromatography software (Agilent Technologies, Santa Clara, CA, USA). […] For analytical and semi-preparative radio-HPLC analyses, Reprosil-Pur columns (C18-AQ 250 × 4.6 mm; 5 μm; and C18-AQ 150 × 4.6 mm; 10 μm; Dr. Maisch HPLC GmbH; Ammerbuch-Entringen, Germany) were used. Acetonitrile (ACN) mixed with a 20 mM aqueous solution of ammonium acetate (NH4OAc) was used as eluent.\n(§7) In corresponding piglet studies (n = 5), plasma was separated from the arterial blood samples drawn during the PET recordings at certain time points.\n(§8) In piglet studies, similar procedures were implemented for preparing samples from plasma collected at 15, 30, 45 and 60 min p.i., with the exception of collecting the urine sample only at 60 min p.i. Additionally, in order to measure the radio-metabolites in the piglet kidney, the tissue was resected at 60 min p.i. and after washing in PBS, samples of the kidney cortex and medulla were isolated and homogenized in demineralized water (2 mL/g tissue) using a borosilicate glass mortar with ten strokes of a PTFE plunger at 1000 rpm (Potter S, Homogenizer, B. Braun Biotech, Sartorius AG, Göttingen, Germany). Protein precipitation was performed by addition of ice-cold ACN/H2O at a ratio of 4:1 (v/v) of organic solvent to each tissue sample. The samples were vortexed for 3 min, placed on ice for 3 min, and the suspensions were centrifuged at 12,000 rpm at 4 °C for 5 min. For the second extraction, the precipitates were washed with 200 μL of the solvent mixture and subjected to the same procedure. The combined supernatants (total volume between 68 mL) were concentrated at 70 °C under argon flow to a final volume of approximately 2 mL and analyzed by semi-preparative RP radio-HPLC. […] The analyses were performed in gradient mode using 10% ACN/20 mM NH4OAc (aq.) as eluent A and 90% ACN/20 mM NH4OAc (aq.) as eluent B under the following conditions:\n(§9) To determine the percentage of the radioactivity in the supernatants compared to the total radioactivity aliquots were taken at each step and, as well as the precipitates, quantified by gamma counting.\n(§10) By interpolation of the measured radio-metabolite fractions from the piglet PET studies, the continuous TACs for [^18F]FACH and its radio-metabolites were calculated. Subsequently, the magnitudes of the whole body rate constant for [^18F]FACH metabolism (k0) and the elimination rate constant for the radio-metabolites (k−1) under control and pre-treated conditions were calculated as described previously [32]. Graphical analysis of the integrals of the plasma time-concentration series of PET tracers and their radio-metabolite(s) follow a linear relationship [32, 47], where the ordinate intercept is equal to the whole body fractional rate constant for the metabolism of the parent, designated k0 (min^−1). The linear regression slope corresponds to the fractional rate constant for the elimination of the radio-metabolite from circulation, designated k−1 (min^−1), which indicates the renal clearance of the radio-metabolite."}, "MCTs [7]": {"system": "MCTs", "assay": "PET displacement study in mice", "format": "in vivo, mouse", "protocol": "as §1, §2"}, "MCTs [8]": {"system": "MCTs", "assay": "Compartmental kinetic modelling of PET data in piglets", "format": "in vivo, piglet", "settings": "living piglets, α-CCA-Na dose", "protocol": "(§4) Table 4 includes the results of 1-tissue-compartment kinetic modelling (1-TCM) of [^18F]FACH in the kidney cortex and the liver of the control and pre-treated mouse groups (α-CCA-Na and reference compound). […] The BPND was estimated as the ratio of [VT(control)/VT(pre-treatment)] − 1.\n(§5) Kinetic analysis of reconstructed datasets was performed with PMOD software. First, image derived arterial input functions (IDIFs) were obtained from the left ventricle in mice and from an artery close to the kidney in piglet studies. IDIFs were corrected for partial volume effects, plasma fraction from hematocrit values (individually determined for each piglet directly before PET imaging; for mice set to 0.51 according to CD-1 Mouse Hematology sheet from Charles River Laboratories, 2011) and radio-metabolites (measured for piglets, and set to zero for mice). Tri-exponential metabolite-corrected fitted input functions were used for one and two tissue compartment modelling (1-TCM/2-TCM) of time activity curves (TACs) in tissue volumes of interest (VOIs). For both species the specific blood volume was set to 0.15 mL g^−1 in the kidney cortex and 0.128 mL g^−1 in the liver, according to published values."}, "[9]": {"assay": "Metabolism and renal excretion of [18F]FACH in piglets (radio-HPLC, graphical analysis)", "settings": "piglet pre-treated with α-CCA-Na, 60 min p.i.", "quoted_text": "as §6, §7, §8, §9, §10"}, "MCTs [10]": {"system": "MCTs", "format": "in vivo, piglet", "protocol": "The piglets (n = 6) were inititally anaesthetised with intramuscular injections of stresnil and ursotamin, and anaesthesia was maintained with intravenous ursotamin and midazolam, as required. The hematocrit was measured in an ear vein blood sample collected just prior to imaging. Either saline (n = 3) or 25 mg/kg α-CCA-Na (n = 3) in saline was administrated ten min before i.v. administration of [^18F]FACH (261–327 MBq, corresponding to 218–852 pmol/kg) via an ear vein. Imaging was performed with a simultaneous hybrid PET/MR system (mMR Biograph; Siemens, Erlangen, Germany) equipped with dedicated phased-array surface. PET data were reconstructed into a 128 × 128 matrix (voxel size: 1.40 × 1.40 × 2.03 mm^3) using the built-in OSEM3D algorithm with eight iterations, 21 subsets, and a 3-mm Gaussian filter. The attenuation and decay corrected dynamic sequence consisted of 32 frames as follows: 1 × 15, 11 × 30, 1 × 45, 5 × 60, 1 × 90, 5 × 120, 1 × 180, 4 × 240, 1 × 300, 2 × 360 s, whereas activity concentrations in VOIs are represented in units of SUV or percentage of injected dose (%/ID). After completing the dynamic PET recording, piglets were euthanized with an i.v. overdose of T61 (Intervet Deutschland GmbH, Unterschleißheim, Germany) and tissues were sampled for radio-metabolism studies in selected animals.\nas §2, §3"}, "MCTs [11]": {"system": "MCTs", "assay": "Compartmental kinetic modelling of PET data in mice", "format": "in vivo, mouse", "settings": "kidney cortex, 2-TCM, [18F]FACH after α-CCA-Na pre-treatment", "protocol": "as §4, §5"}, "[12]": {"settings": "mice, reference compound 10 mg/kg pre-treatment"}}, "note": "Where two headings read alike, the source gives them in different places.", "data": [{"smiles": "CCCN(CCCF)c1ccc(/C=C(\\C#N)C(=O)[O-])c(OC)c1.[Na+]", "note": "[FACH-Na]", "values": [{"measurement": "reduction of [18F]FACH AUC0–60min in kidney cortex vs control", "setting": "MCTs [1]; [12]", "result": 79, "unit": "%"}, {"measurement": "reduction of [18F]FACH AUC0–60min in liver vs control", "setting": "MCTs [1]; [12]", "result": 44, "unit": "%"}, {"measurement": "AUC0–60 min gall bladder", "setting": "MCTs [1]; 10 mg/kg", "result": 1388, "unit": "SUV min"}, {"measurement": "AUC0–60 min kidney cortex", "setting": "MCTs [1]; 10 mg/kg", "result": 62, "unit": "SUV min"}, {"measurement": "AUC0–60 min liver", "setting": "MCTs [1]; 10 mg/kg", "result": 250, "unit": "SUV min"}, {"measurement": "AUC0–60 min small intestine", "setting": "MCTs [1]; 10 mg/kg", "result": 405, "unit": "SUV min"}, {"measurement": "AUC0–60 min whole blood", "setting": "MCTs [1]; 10 mg/kg", "result": 125, "unit": "SUV min"}, {"measurement": "displacement of [18F]FACH", "setting": "MCTs [2]", "result": 41, "unit": "%"}, {"measurement": "no-observed-adverse-effect-level (NOAEL)", "setting": "[3]; Wistar rats, single bolus i.v.", "result": 620, "unit": "µg FACH-Na/kg bodyweight"}, {"measurement": "NOAEL relative to the equivalent to the human dose (0.1 µg/kg)", "setting": "[3]; rats", "result": "approximately 1000 fold"}]}, {"smiles": "N#CC(=Cc1ccc(O)cc1)C(=O)O", "note": "[α-CCA, α-cyano-4-hydroxycinnamic acid]", "values": [{"measurement": "selectivity for MCT1 (MCT1/4) compared to the other subtypes", "setting": "MCT1 [4]", "result": "ten-fold higher selectivity"}]}, {"smiles": "CCCN(CCCF)c1ccc(/C=C(\\C#N)C(=O)O)c(OC)c1", "note": "[FACH]", "values": [{"measurement": "IC50", "setting": "MCT1 [5]", "result": 11, "unit": "nM"}, {"measurement": "IC50", "setting": "MCT4", "result": 6.5, "unit": "nM"}]}, {"smiles": "N#CC(=Cc1ccc(O)cc1)C(=O)[O-].[Na+]", "note": "[α-CCA-Na, reference compound]", "values": [{"measurement": "AUC0–60 min gall bladder", "setting": "MCTs [1]; 25 mg/kg", "result": 486, "unit": "SUV min"}, {"measurement": "AUC0–60 min kidney cortex", "setting": "MCTs [1]; 25 mg/kg", "result": 153, "unit": "SUV min"}, {"measurement": "AUC0–60 min liver", "setting": "MCTs [1]; 25 mg/kg", "result": 417, "unit": "SUV min"}, {"measurement": "AUC0–60 min small intestine", "setting": "MCTs [1]; 25 mg/kg", "result": 180, "unit": "SUV min"}, {"measurement": "AUC0–60 min whole blood", "setting": "MCTs [1]; 25 mg/kg", "result": 63, "unit": "SUV min"}, {"measurement": "rate constant for elimination of radio-metabolites from plasma (k−1)", "setting": "[6]", "result": "0.020 ± 0.003", "unit": "min⁻¹"}, {"measurement": "displacement of [18F]FACH", "setting": "MCTs [2]", "result": 8, "unit": "%"}, {"measurement": "decrease of kidney cortex SUV", "setting": "MCTs [7]; mice, 5 min after i.v. α-CCA-Na 25 mg/kg given 20 min after tracer", "result": 66, "unit": "%"}, {"measurement": "kidney cortex SUV", "setting": "MCTs [7]; mouse, in vivo", "result": "1.41 ± 0.36"}, {"measurement": "specifically bound radiotracer displaced", "setting": "MCTs [8]", "result": "around 50%"}, {"measurement": "selectivity for MCT1 (MCT1/4) compared to the other subtypes", "setting": "MCT1 [4]", "result": 10, "unit": "fold"}, {"measurement": "parent fraction of [18F]FACH in kidney cortex", "setting": "[9]", "result": 17.0, "unit": "%"}, {"measurement": "AUC0–60 min gall bladder", "setting": "MCTs [10]; in vivo, 25 mg/kg", "result": 4453, "unit": "SUV min"}, {"measurement": "AUC0–60 min kidney cortex", "setting": "MCTs [10]; in vivo, 25 mg/kg", "result": 178, "unit": "SUV min"}, {"measurement": "AUC0–60 min kidney medulla", "setting": "MCTs [10]; in vivo, 25 mg/kg", "result": 1264, "unit": "SUV min"}, {"measurement": "AUC0–60 min liver", "setting": "MCTs [10]; in vivo, 25 mg/kg", "result": 286, "unit": "SUV min"}, {"measurement": "AUC0–60 min plasma", "setting": "MCTs [10]; in vivo, 25 mg/kg", "result": 40, "unit": "SUV min"}, {"measurement": "AUC0–60 min vertebrae", "setting": "MCTs [10]; in vivo, 25 mg/kg", "result": 100, "unit": "SUV min"}, {"measurement": "kidney uptake blocked by α-CCA-Na pre-treatment", "setting": "MCTs [10]; piglets", "result": "about 60%"}, {"measurement": "reduction of [18F]FACH AUC0–60min in kidney medulla", "setting": "MCTs [10]; piglets, α-CCA-Na 25 mg/kg pre-treatment", "result": 50, "unit": "%"}, {"measurement": "BPND = k3/k4 (2-TCM)", "setting": "MCTs [11]", "result": "12.96±5.40 1/1"}]}]}
